From US20120064514A1, “HIV-1-C […]” (Virco BVBA, priority 2009, published 2012)
“Also recorded” adds a separate entry of the source.

Tests used:
[1] = tested on: recombinant virus stocks with subtype C GPRT in pGEM-HXB2-Δgprt-BstEII (subtype B) backbone; assay: Antiviral drug susceptibility testing of recombinant virus stocks, subtype C GPRT amplicon in HIV-1 subtype B backbone, MT4-eGFP cells; type: cell-based; conditions: Clone 3 of Sample 3, FC with vs without 184V, FIG. 4
Text: (§1) An HIV subtype C backbone was designed in silico. The complete genome (12 721 bp) was divided into 4 fragments which were chemically synthesized and subsequently joined together by traditional subcloning. Gag-protease-reverse-transcriptase (GPRT) fragments from 8 patient samples infected with subtype C HIV-1 were RT-PCR amplified. The 1.7 kb PCR fragment was cloned into the HIV-1-C backbone (deleted for GPRT) using In-Fusion reagents. Full-genome clones (N ranging from 1 to 5 per patient sample) were transfected in MT4-eGFP cells where cyto-pathogenic effect (CPE), p24 and Viral Load (VL) were monitored. The resulting HIV-1-C recombinant virus stocks (RVSs) were added to MT4-eGFP cells in the presence of serial dilutions of antiretroviral drugs (PI, NNRTI, N(t)RTI) to determine the fold-change in IC50 compared to the IC50 of wild-type HIV-1 virus. Additionally, viral RNA was extracted from the HIV-1-C RVSs and submitted to an RT-PCR. The resulting GPRT amplicons were recombined into a subtype B backbone and phenotyped as described above, allowing the comparison of GPRT resistance profiles in the two backbones.
In contrast to the In-Fusion strategy for the subtype C backbone, a homologous recombination event strategy was used for the subtype B backbone to generate infectious virus. Here the BstEII-linearized pGEM-HXB2Δgprt-BstEII backbone was co-transfected with the 1.8 kb GPRT fragment in an MT4 cell line, resulting in a full-genome infectious virus.
(§2) 5. Antiviral Drug Susceptibility Testing of Virus Stocks Generated with the pGEM-HIV-1-C-Δgprt-BstEII vs. the pGEM-HXB2-Δgprt-BstEII Backbone but Carrying Identical GPRT Fragments.
(§3) Fold-change values were calculated by dividing the IC50 values of the virus stocks harboring Resistance Associated Mutations (RAMs) by the IC50 values of the corresponding backbone with wild-type amplicon.

[2] = tested on: HIV-1-C recombinant virus stocks (pGEM-HIV-1-C-Δgprt-BstEII backbone); assay: Antiviral drug susceptibility testing of recombinant virus stocks, subtype C GPRT amplicon in HIV-1 subtype C backbone, MT4-eGFP cells; type: cell-based; conditions: for effect of RAM M184V in RT on FC: subtype C backbone, Clone 3 of Sample 3, FC with vs without 184V, FIG. 4; for ratio FCsubtype B/FCsubtype C (fold change in IC50 vs wild-type): same subtype C GPRT amplicons in subtype B vs subtype C backbone, FIG. 3-E, ratio significantly different from 1 (p<0.05) for the listed drugs
Text: as §1, §2, §3

Row | SMILES | effect of RAM M184V in RT on FC [1] | effect of RAM M184V in RT on FC [2] | ratio FCsubtype B/FCsubtype C (fold change in IC50 vs wild-type) [2]
1 | Cc1cn([C@H]2C[C@H](N=[N+]=[N-])[C@@H](CO)O2)c(=O)[nH]c1=O [AZT] | re-sensitizing effects; also recorded: decreases the FC | re-sensitizing effects; also recorded: decreases the FC | 
2 | O=c1[nH]cnc2c1ncn2[C@H]1CC[C@@H](CO)O1 [ddI, didanosine] | not significantly affected | not significantly affected | 
3 | Nc1nc(=O)n([C@@H]2CS[C@H](CO)O2)cc1F [FTC, emtricitabine] | increase in FC | increase in FC | 0.50
4 | Cc1cc(C#N)cc(C)c1Oc1nc(Nc2ccc(C#N)cc2)nc(N)c1Br [ETR, etravirine] |  |  | 0.67
5 | CC(C)OC(=O)OCOP(=O)(CO[C@H](C)Cn1cnc2c(N)ncnc21)OCOC(=O)OC(C)C.O=C(O)/C=C/C(=O)O [TDF] | decreases the FC | decreases the FC | 
6 | Nc1nc(NC2CC2)c2ncn([C@H]3C=C[C@@H](CO)C3)c2n1 [ABC] | not significantly affected | not significantly affected | 
7 | CC(C)CN(C[C@@H](O)[C@H](Cc1ccccc1)NC(=O)O[C@H]1CO[C@H]2OCC[C@H]21)S(=O)(=O)c1ccc(N)cc1 [darunavir] |  |  | 1.78
8 | Cc1cn([C@H]2C=C[C@@H](CO)O2)c(=O)[nH]c1=O [d4T] | decreases the FC | decreases the FC | 
9 | Cc1ccnc2c1NC(=O)c1cccnc1N2C1CC1 [nevirapine] |  |  | 1.61
10 | Cc1cccc(C)c1OCC(=O)N[C@@H](Cc1ccccc1)[C@@H](O)C[C@H](Cc1ccccc1)NC(=O)[C@H](C(C)C)N1CCCNC1=O [lopinavir] |  |  | 1.86
